Read-outs that look alike come from different tables or passages of the source.
How the values were obtained:
[1] = target: PDK1 (Homo sapiens (Human), UniProt O15530); assay: PDK1 kinase assay (coupled PDK1/AKT/FAM-crosstide assay, IMAP fluorescence polarization); assay type: biochemical; details: inhibition of PDK1 in vitro
How it was run: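 PDK1 activity is measured indirectly through activation of a PIFtide-fused AKT2 construct that phosphorylates FAM-crosstide (100 nM). The reaction uses 0.75 nM PDK1, 40 μM ATP, 30 min, 25° C, with IMAP polarization detection.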

[2] = system: phospho-akt (Thr308) in PC-3 cells; assay: Inhibition of phospho-akt (Thr308) in PC-3 cells, MSD phospho-akt 308 ELISA kit; assay type: cell-based; details: inhibition of P308 Akt in PC-3 cells using MSD, 2 hours, no serum, read-out: EC50
How it was run: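 Phospho-Akt (Thr308) levels were measured by MSD ELISA after PC-3 cells received compound for 2 hours in serum-free medium. Controls: DMSO (high), 5 μM wortmannin (low).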

Sequence of PDK1 (O15530 51-359): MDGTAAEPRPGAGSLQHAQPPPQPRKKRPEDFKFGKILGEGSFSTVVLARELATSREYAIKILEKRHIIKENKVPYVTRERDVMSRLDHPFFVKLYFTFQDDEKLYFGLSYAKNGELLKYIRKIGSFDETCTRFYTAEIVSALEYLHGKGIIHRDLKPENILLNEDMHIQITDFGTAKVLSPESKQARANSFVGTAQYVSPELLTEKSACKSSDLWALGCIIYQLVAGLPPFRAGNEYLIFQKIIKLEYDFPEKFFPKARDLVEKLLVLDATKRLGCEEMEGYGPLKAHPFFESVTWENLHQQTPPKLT

Compound	IC50 [1] [nM]	EC50 ([2]; Homo sapiens) [nM]	EC50 [2] [nM]	EC50 ([2]; Homo sapiens, PC-3, 2 h) [nM]
C[C@H](NC(=O)c1cc(C#N)cnc1NCc1ccc(-c2cnc(N)c(C(=O)O)n2)cc1)c1ccc(F)cc1 [Example 207, (S)-3-amino-6-(4-((5-cyano-3-(1-(4-fluorophenyl)ethylcarbamoyl)pyridin-2-ylamino)methyl)phenyl)-pyrazine-2-carboxylic acid]	< 100	> 10000	–	–
C[C@H](NC(=O)c1cc(C#N)cnc1NCc1ccc(-c2cnc(N)c(C(=O)NCCCS(C)(=O)=O)n2)cc1)c1ccc(F)cc1 [Example 208]	< 100	< 1000	–	–
C[C@H](NC(=O)c1cc(C#N)cnc1NCc1ccc(-c2cnc(N)c(C(=O)NCCCO)n2)cc1)c1ccc(F)cc1 [Example 209, (S)-3-amino-6-(4-((5-cyano-3-(1-(4-fluorophenyl)ethylcarbamoyl)pyridin-2-ylamino)methyl)phenyl)-N-(3-hydroxypropyl) pyrazine-2-carboxamide]	< 100	–	< 1000	–
C[C@H](NC(=O)c1cc(C#N)cnc1NCc1ccc(-c2cnc(N)c(C(=O)N(C)C)n2)cc1)c1ccc(F)cc1 [Example 210, (S)-3-amino-6-(4-((5-cyano-3-(1-(4-fluorophenyl)ethylcarbamoyl)pyridin-2-ylamino)methyl)phenyl)-N,N-dimethylpyrazine-2-carboxamide]	< 100	1000 to 10000	–	–
C[C@H](NC(=O)c1cc(C#N)cnc1NCc1ccc(-c2cnc(N)c(C(=O)NCCCN(C)C)n2)cc1)c1ccc(F)cc1 [Example 211]	< 100	1000 to 10000	–	–
C[C@H](NC(=O)c1cc(C#N)cnc1NCc1ccc(-c2cnc(N)c(C(=O)NCCN(C)C)n2)cc1)c1ccc(F)cc1 [Example 212]	< 100	< 1000	–	–
C[C@H](NC(=O)c1cc(C#N)cnc1NCc1ccc(-c2cnc(N)c(C(=O)NCCN3CCN(C)CC3)n2)cc1)c1ccc(F)cc1 [Example 213, (S)-3-amino-6-(4-((5-cyano-3-(1-(4-fluorophenyl)ethylcarbamoyl)pyridin-2-ylamino)methyl)phenyl)-N-(2-(4-methylpiperazin-1-yl)ethyl)pyrazine-2-carboxamide]	< 100	< 1000	–	–
C[C@H](NC(=O)c1cc(C#N)cnc1NCc1ccc(-c2cnc(N)c(C(=O)NCCN3CCOCC3)n2)cc1)c1ccc(F)cc1 [Example 214, (S)-3-amino-6-(4-((5-cyano-3-(1-(4-fluorophenyl)ethylcarbamoyl)pyridin-2-ylamino)methyl)phenyl)-N-(2-morpholinoethyl) pyrazine-2-carboxamide]	< 100	< 1000	–	–
C[C@H](NC(=O)c1cc(C#N)cnc1NCc1ccc(-c2cnc(N)c(C(=O)NCCO)n2)cc1)c1ccc(F)cc1 [Example 215, (S)-3-amino-6-(4-((5-cyano-3-(1-(4-fluorophenyl)ethylcarbamoyl)pyridin-2-ylamino)methyl)phenyl)-N-(2-hydroxyethyl) pyrazine-2-carboxamide]	< 100	< 1000	–	–
CNC(=O)c1nc(-c2ccc(CNc3ncc(C#N)cc3C(=O)N[C@@H](C)c3ccc(F)cc3)cc2)cnc1N [Example 216, (S)-3-amino-6-(4-((5-cyano-3-(1-(4-fluorophenyl)ethylcarbamoyl)pyridin-2-ylamino)methyl)phenyl)-N-methylpyrazine-2-carboxamide]	< 100	< 1000	–	–
C[C@H](NC(=O)c1cc(C#N)cnc1NCc1ccc(-c2cnc(N)c(C(N)=O)n2)cc1)c1ccc(F)cc1 [Example 217, (S)-3-amino-6-(4-((5-cyano-3-(1-(4-fluorophenyl)ethylcarbamoyl)pyridin-2-ylamino)methyl)phenyl) pyrazine-2-carboxamide]	< 100	< 1000	–	–
C[C@H](NC(=O)c1cc(C#N)cnc1NCc1ccc(-c2cnc(N)c(C(=O)NC3CC3)n2)cc1)c1ccc(F)cc1 [Example 218, (S)-3-amino-6-(4-((5-cyano-3-(1-(4-fluorophenyl)ethylcarbamoyl)pyridin-2-ylamino)methyl)phenyl)-N-cyclopropylpyrazine-2-carboxamide]	< 100	< 1000	–	–
C[C@H](NC(=O)c1nc(C#N)cnc1NCc1ccc(-c2cnc(N)c(C(=O)N3CCNCC3)n2)cc1)c1ccc(F)c(F)c1 [Example 219, 3-{4-[5-Amino-6-(piperazine-1-carbonyl)-pyrazin-2-yl]-benzylamino}-6-cyano-pyrazine-2-carboxylic acid [(S)-1-(3,4-difluoro-phenyl)-ethyl]-amide]	< 100	1000 to 10000	–	–
Nc1ncc(-c2ccc(CNc3ncc(C(F)(F)F)cc3C(=O)Nc3ccc(F)cc3)cc2)nc1C(=O)N1CCNCC1 [Example 220, 2-{4-[5-Amino-6-(piperazine-1-carbonyl)-pyrazin-2-yl]-benzylamino}-N-(4-fluoro-phenyl)-5-trifluoromethyl-nicotinamide]	< 100	1000 to 10000	–	–
C[C@H](NC(=O)c1cc(C#N)cnc1NCc1ccc(-c2cnc(N)c(C(=O)N3CCNCC3)n2)cc1)c1ccc(F)cc1 [Example 221, 2-{4-[5-Amino-6-(piperazine-1-carbonyl)-pyrazin-2-yl]-benzylamino}-5-cyano-N-[(S)-1-(4-fluoro-phenyl)-ethyl]-nicotinamide]	< 100	1000 to 10000	–	–
C[C@H](NC(=O)c1cc(C#N)cnc1NCc1ccc(-c2ccc(NCCO)nc2)cc1)c1ccc(F)cc1 [Example 222, 5-Cyano-N-[(S)-1-(4-fluoro-phenyl)-ethyl]-2-{4-[6-(2-hydroxy-ethylamino)-pyridin-3-yl]-benzylamino}-nicotinamide]	100 to 1000	1000 to 10000	–	–
C[C@H](NC(=O)c1cc(C#N)cnc1NCc1ccc(-c2ccc(NCCN3CCOCC3)nc2)cc1)c1ccc(F)cc1 [Example 223, 5-Cyano-N-[(S)-1-(4-fluoro-phenyl)-ethyl]-2-{4-[6-(2-morpholin-4-yl-ethylamino)-pyridin-3-yl]-benzylamino}-nicotinamide]	> 5000	> 10000	–	–
C[C@H](NC(=O)c1cc(C#N)cnc1NCc1ccc(-c2ccc(NCCN(C)C)nc2)cc1)c1ccc(F)cc1 [Example 224, 5-Cyano-2-{4-[6-(2-dimethylamino-ethylamino)-pyridin-3-yl]-benzylamino}-N-[(S)-1-(4-fluoro-phenyl)-ethyl]-nicotinamide]	> 5000	> 10000	–	–
C[C@H](NC(=O)c1cc(C#N)cnc1NCc1ccc(-c2cnc(NCCCN(C)C)cn2)cc1)c1ccc(F)cc1 [Example 225, 5-Cyano-2-{4-[5-(3-dimethylamino-propylamino)-pyrazin-2-yl]-benzylamino}-N-[(S)-1-(4-fluoro-phenyl)-ethyl]-nicotinamide]	> 5000	> 10000	–	–
C[C@H](NC(=O)c1cc(C#N)cnc1NCc1ccc(-c2cnc(NCCN(C)C)cn2)cc1)c1ccc(F)cc1 [Example 226, 5-Cyano-2-{4-[5-(2-dimethylamino-ethylamino)-pyrazin-2-yl]-benzylamino}-N-[(S)-1-(4-fluoro-phenyl)-ethyl]-nicotinamide]	> 5000	> 10000	–	–
C[C@H](NC(=O)c1cc(C#N)cnc1NCc1ccc(-c2cnc(NCCO)cn2)cc1)c1ccc(F)cc1 [Example 227, 5-Cyano-N-[(S)-1-(4-fluoro-phenyl)-ethyl]-2-{4-[5-(2-hydroxy-ethylamino)-pyrazin-2-yl]-benzylamino}-nicotinamide]	100 to 1000	1000 to 10000	–	–
COCCCNc1cnc(-c2ccc(CNc3ncc(C#N)cc3C(=O)N[C@@H](C)c3ccc(F)cc3)cc2)cn1 [Example 228, 5-Cyano-N-[(S)-1-(4-fluoro-phenyl)-ethyl]-2-{4-[5-(3-methoxy-propylamino)-pyrazin-2-yl]-benzylamino}-nicotinamide]	1000 to 5000	> 10000	–	–
O=C(NCc1ccc(F)c(F)c1)c1cc(C(F)(F)F)cnc1NCc1ccc(-c2cnc(NCCO)cn2)cc1 [Example 229, N-(3,4-difluorobenzyl)-2-(4-(5-(2-hydroxyethylamino)pyrazin-2-yl)benzylamino)-5-(trifluoromethyl)nicotinamide]	100 to 1000	1000 to 10000	–	–
C[C@H](NC(=O)c1nc(C#N)cnc1NCc1ccc(-c2cnc(NCCO)cn2)cc1)c1ccc(F)c(F)c1 [Example 230, 6-Cyano-3-{4-[5-(2-hydroxy-ethylamino)-pyrazin-2-yl]-benzylamino}-pyrazine-2-carboxylic acid [(S)-1-(3,4-difluoro-phenyl)-ethyl]-amide]	< 100	1000 to 10000	–	–
O=C(NCc1ccc(F)c(F)c1)c1cc(C(F)(F)F)cnc1NCc1ccc(-c2cnc(NCCCO)cn2)cc1 [Example 231, N-(3,4-Difluoro-benzyl)-2-{4-[5-(3-hydroxy-propylamino)-pyrazin-2-yl]-benzylamino}-5-trifluoromethyl-nicotinamide]	100 to 1000	–	–	1000 to 10000
C[C@H](NC(=O)c1cc(C#N)cnc1NCc1ccc(-c2cnc(N)c(C3=CCNCC3)n2)cc1)c1ccc(F)cc1 [Example 233, 2-{4-[5-Amino-6-(1,2,3,6-tetrahydro-pyridin-4-yl)-pyrazin-2-yl]-benzylamino}-5-cyano-N-[(S)-1-(4-fluoro-phenyl)-ethyl]-nicotinamide]	< 100	< 1000	–	–
C[C@H](NC(=O)c1cc(C#N)cnc1NCc1ccc(-c2cnc(N)c(-c3cccc(O)c3)n2)cc1)c1ccc(F)cc1 [Example 234, 2-{4-[5-Amino-6-(3-hydroxy-phenyl)-pyrazin-2-yl]-benzylamino}-5-cyano-N-[(S)-1-(4-fluoro-phenyl)-ethyl]-nicotinamide]	< 100	–	–	1000 to 10000

Reference: patent US10030016B2 (Sunesis Pharmaceuticals, Inc., priority 2009, dated 2018)
